Literature values in patent US20120201889A1, “MODIFIED AND IMMEDIATE RELEASE FORMULATIONS OF MEMANTINE” (Forest Laboratories Holdings Ltd., priority 2005, published 2012).

Settings: after oral administration

absolute bioavailability: approximately 100%
Compound: CC12CC3CC(C)(C1)CC(N)(C3)C2 [memantine, 1-amino-3,5-dimethyladamantane]
